Measurements from US20240293327A1, “MONOLITHIC TABLETS BASED ON CARBOXYL POLYMERIC COMPLEXES FOR CONTROLLED DRUG RELEASE” (MATRIPHARM INTERNATIONAL INC., priority 2014, published 2024).
Structures can show the parent of a compound that is named as a salt.

Assays:
[1] = Beagle dog, oral, 500 mg, 1 dose
[2] = in vivo; settings: male, beagle, dog, plasma, po, 500 mg
[3] = cited from earlier work

Row | SMILES | Ke (terminal elimination rate per hour) [1] [h⁻¹] | AUC(0-inf) [2] [ng·h/mL] | AUC(0-t) [2] [ng·h/mL] | Cmax [2] [ng/mL] | MRT [2] [h] | Tmax [2] [h] | Time to complete absorption after administration ([3]; estimated) [h] | Absorbed in the remaining part of (lower) intestine tract ([3]; in vivo) | Recovered in faeces ([3]; in vivo)
1 | CN(C)C(=N)N=C(N)N [Metformin (Matrix-free), metformin hydrochloride] | 0.157 | 81200 | 77900 | 12400 | 8.02 | 1.3 | – | – | –
2 | CN(C)C(=N)N=C(N)N [Metformin] | – | – | – | – | – | – | ≤ 6 | about 40% | up to 30%
